Test system: memory disruption induced by MK-801 in male Long Evans rats
Assay: Novel Object Recognition (NOR) test, memory disruption induced by MK-801
Type: in vivo, rat
Conditions: any dose tested, oral
Experimental: In the present study, a memory saving model was used. MK-801 (Dizocilpine), an uncompetitive antagonist of the NMDA receptor was used to cause deficit of recognition memory. sGC stimulators were evaluated for their efficacy to prevent memory impairment induced by MK-801.
Adult male Long-Evans rats (275-299 gram at arrival from Envigo, Indianapolis, IN) were used in this study. Rats were placed in the experimental rooms and assigned unique identification numbers (tail marks). Rats were housed 2 per cage in polycarbonate cages with filter tops and acclimated for at least 7 days prior to testing. […]
NOR test was conducted in an open-field arena (40×40 cm) placed in a sound-attenuated room under dimmed lighting. […] All training and testing trials were video-taped and scored by an observer blind to treatments.
On Days 1 and 2, rats were allowed to freely explore the arena (no objects inside) for a 5-minute habituation period. […] Each rat was placed in the arena facing the same direction at the same position, and the time spent actively exploring the objects during a 3-minute training period (T1) was recorded. […] Each rat was placed back into the test arena in the presence of one familiar object and one novel object for 5 minutes, and the time spent exploring both objects was recorded. […]

## Oc1nc(-c2cn3ccnc3c(Cc3cc(F)ccc3F)n2)ncc1F [Compound I-20, 5-fluoro-2-(8-(2,5-difluorobenzyl)imidazo[1,2-a]pyrazin-6-yl)pyrimidin-4-ol]
  obvious side effects in NOR study: None of the rats in this study showed obvious side effects
